Key:
in vivo = details: mouse
Experimental: The acute toxicity of the products of the invention was determined on groups of 20 Swiss OF1 mice weighing 22 to 24 grams by intravenous route.

[1] = test system: inflammation in the paw of the rat; assay: Analgesic activity, brewer's yeast paw inflammation pressure test (derived from Randall and Selito); format: in vivo, rat (male Sprague-Dawley); details: 100 mg/kg oral, 1 hour after administration
Experimental: The analgesic activity of the products was studied on male Sprague-Dawley rats in groups of 15 by a method derived from that of Randall and Selito (Arch. Int. Pharmacodyn. 1957 (III) page 409). This method consists in causing a painful inflammation in the paw of the rat by injecting 0.1 ml of a 20% brewer's yeast solution, then applying a pressure to the inflammation and determining the value of the pressure at which a painful reaction of the animal appears.
The activity of the products was studied after 1 hour of administration by oral route at the rate of one dose of 100 mg/kg in comparison with untreated animals. In this test aspirin was chosen as reference substance.
The analgesic effect of the products is expressed by the percentage increase of the pressure endured by the treated animals in relation to that endured by the untreated animals.
The results of the analgesic activity of the product tested are expressed in relation to the activity of aspirin administered by oral route at a dose of 100 mg/kg.

guinea-pig ileum = assay: Spasmolytic activity in vitro against nicotine, isolated guinea-pig ileum; details: for Spasmolytic activity compared with hexamethonium dibromide: nicotine 1 mg/l, relative EC50 comparison; for spasmolytic index/hexamethonium dibromide: relative index I from activity and relative toxicity, calculated in mmoles
Experimental: (§1) The spasmolytic activity of the products was studied in vitro with regard to two distinct agonists, namely:
(§2) The organ fragments were kept alive in a tank containing a solution of Tyrode (37° C., pH 7.2, oxygenated by the mixture O2 /CO2, 95%/5%).
(§3) The isotonic contractions were recorded graphically on a physiograph by means of a transducer. […] The values obtained are compared with those of spasmolytic agents selected as reference and are determined under the same experimental conditions, namely:
hexamethonium dibromide for the convulsant effect of nicotine (table V).

rat duodenum = assay: Spasmolytic activity in vitro against barium chloride, isolated rat duodenum; details: for Spasmolytic activity compared with papaverine hydrochloride / spasmolytic index/papaverine hydrochloride: rat duodenum; for Spasmolytic activity compared with papaverine hydrochloride: BaCl2 50 mg/l, relative EC50 comparison; for spasmolytic index/papaverine hydrochloride: relative index I from activity and relative toxicity, calculated in mmoles; for relative index of spasmolytic activity compared with papaverine: summary statement, times higher than the reference
Experimental: as §1, §2, §3
papaverine hydrochloride for the convulsant effect of barium chloride;

cornea of the rabbit = assay: Local anaesthetic activity on contact, rabbit cornea (derived from Regnier); format: in vivo, rabbit (male albino); details: for Local anaesthetic activity: effect compared with lidocaine: 1% solution, relative to lidocaine hydrochloride at identical concentration, rabbit cornea; for local anaesthesia/lidocaine hydrochloride index: relative index I from activity and relative toxicity, calculated in mmoles
Experimental: The local anaesthetic activity on contact is determined on the cornea of the rabbit according to a method derived from the technique of Regnier (Regnier J. R. Salle P. Bull. Soc. Pharmacol. 1926 33, 91).
Male albino rabbits weighing 2 to 3 kg are used in groups of 5. The product solution to be tested is injected in a volume of 0.2 ml into the conjunctival sac. The cornea is then stimulated by means of a hair 3, 6, 10, 15, 20, 25, 45 and 60 minutes after injection.
The local anaesthetic activity is thus expressed in relation to this reference product.

[2] = reference substances, mice, intravenous

| Compound | LD50 at 192 h (in vivo; iv) [mg/kg] | Analgesic activity in relation to aspirin [1] | Spasmolytic activity compared with hexamethonium dibromide (guinea-pig ileum) | spasmolytic index/hexamethonium dibromide (guinea-pig ileum) | Spasmolytic activity compared with papaverine hydrochloride (rat duodenum) | spasmolytic index/papaverine hydrochloride (rat duodenum) | Local anaesthetic activity: effect compared with lidocaine (cornea of the rabbit) | local anaesthesia/lidocaine hydrochloride index (cornea of the rabbit) | relative index of spasmolytic activity compared with papaverine (rat duodenum) | LD50 at 192 h (in vivo; [2]) [mg/kg] |
| --- | --- | --- | --- | --- | --- | --- | --- | --- | --- | --- |
| CCC(COCc1cccnc1)(c1ccccc1)N(C)C (stereo not drawn) [Example 10] | 43 | 1.8 | 1.7 | 3.50 | 0.4 | 0.525 |  |  |  |  |
| CCCCCCCCCCOCC(CC)(c1ccccc1)N(C)C (stereo not drawn) [Example 5] | 37 | 2.5 | 2.2 | 3.85 | 0.5 | 0.56 |  |  |  |  |
| CC(=O)Oc1ccccc1C(=O)O [aspirin, reference compound] |  | 1 |  |  |  |  |  |  |  |  |
| COc1ccc(CC(C)(COCc2ccccc2)N(C)C)cc1OC (stereo not drawn) [Example 18] | 27.3 |  |  |  |  |  |  |  |  |  |
| COc1ccc(CCC(C)(COCc2cc(OC)c(OC)c(OC)c2)N(C)C)cc1OC (stereo not drawn) [Example 19] | 30.7 |  |  |  |  |  | 0.95 | 0.92 |  |  |
| CCC(COCc1cc(OC)c(OC)c(OC)c1)(c1ccccc1)N(C)C (stereo not drawn) [Example 2, 1-[(3,4,5-trimethoxy)benzyloxymethyl]-1-phenyl-N,N-dimethyl-n-propylamine] | 42 |  | 1.2 | 2.42 | 5.4 | 6.90 | 2.2 | 2.95 | up to seven |  |
| CCC(COCc1ccc(C)cc1)(c1ccccc1)N(C)C (stereo not drawn) [Example 6] | 48.6 |  |  |  |  |  |  |  |  |  |
| COc1ccc(C(C)(COCc2ccc(Cl)cc2)N(C)C)cc1 (stereo not drawn) [Example 13] | 48.4 |  |  |  |  |  | 1.1 | 1.71 |  |  |
| CCC(COCc1ccccc1)(c1ccccc1)N(C)C (stereo not drawn) [Example 3, 1-Benzyloxymethyl-1-phenyl-N,N-dimethyl-n-propylamine] | 41.4 |  | 3.4 | 6.69 | 0.9 | 1.125 | 1.4 | 1.85 |  |  |
| CCC(CN(C)C)(Oc1ccc(OC)cc1)c1ccccc1 (stereo not drawn) [Example 22, 2-[(4-methoxy)phenoxy]-2-phenyl-N,N-dimethyl-n-butylamine] | 59.6 |  |  |  |  |  |  |  |  |  |
| C[N+](C)(C)CCCCCC[N+](C)(C)C [hexamethonium, reference compound] |  |  |  |  |  |  |  |  |  | 21 |
| CCC(COCc1ccccn1)(c1ccccc1)N(C)C (stereo not drawn) [Example 9] | 39 |  | 1.4 | 2.62 | 0.4 | 0.475 | 0.7 | 0.875 |  |  |
| CCC(COCc1cc(OC)c(OC)c(OC)c1)(NC)c1ccccc1 (stereo not drawn) [Example 12, 1-[(3,4,5-trimethoxy)benzyloxymethyl]-1-phenyl-N-methyl-n-propylamine] | 34 |  | 2.3 | 4.09 | 1.2 | 1.24 | 1.7 | 1.84 |  |  |
| COc1ccc(CC(C)(N)COCc2ccccc2)cc1OC (stereo not drawn) [Example 17, 1-Benzyloxymethyl-1-methyl-(3,4-dimethoxy)-phenethyl-amine] | 51.6 |  |  |  |  |  |  |  |  |  |
| COc1ccc(Cc2nccc3cc(OC)c(OC)cc23)cc1OC [papaverine, reference compound] |  |  |  |  |  |  |  |  |  | 33.1 |
| CCC(COCc1ccc(OC)c(OC)c1)(c1ccccc1)N(C)C (stereo not drawn) [Example 1, 1-[(3,4-dimethoxy)benzyloxymethyl]-1-phenyl-N,N-dimethyl-n-propylamine] | 30 | 1 | 0.9 | 1.29 | 2.7 | 2.45 | 1.6 | 1.52 |  |  |
| Cc1ccc(COCC(C)(c2ccc(Cl)c(Cl)c2)N(C)C)cc1 (stereo not drawn) [Example 15] | 160 |  |  |  |  |  |  |  |  |  |
| CCC(CN(C)C)(OCc1cc(OC)c(OC)c(OC)c1)c1ccccc1 (stereo not drawn) [Example 11, 2-[(3,4,5-trimethoxy)benzyloxy]-2-phenyl-N,N-dimethyl-n-butylamine] | 46.7 | 2.3 | 2.6 | 5.76 | 1.9 | 2.69 | 1.0 | 1.49 |  |  |
| CCC(COc1ccc(OC)cc1)(c1ccccc1)N(C)C (stereo not drawn) [Example 21, 1-[(4-methoxy)phenoxymethyl]-1-phenyl-N,N-dimethyl-n-propylamine] | 140 |  | 1.7 | 11.33 | 1.7 | 7.28 | 0.45 | 2.00 | up to seven |  |
| CCCCOCC(CC)(c1ccccc1)N(C)C (stereo not drawn) [Example 4] | 26.8 |  |  |  |  |  |  |  |  |  |
| CCC(COc1ccccn1)(c1ccccc1)N(C)C (stereo not drawn) [Example 7] | 37 |  | 1.0 | 1.75 | 1.7 | 1.89 | 1.1 | 1.30 |  |  |
